Data reported in US9856511B2, “Protease deubiquitinating inhibitor screening” (priority 2011, dated 2018).

How the values were obtained:
19S RP = target: T1, 19S RP (Homo sapiens, UniProt P54578+Q9Y5K5); assay: De-ubiquitinase activity assay, purified 19S RP with ubiquitin-AMC; assay type: biochemical
T1 construct: purchased Boston Biochem E-366
Protocol: In vitro proteasome activity assays were performed in black 96-well microtiter plates using human 20S proteasome (Boston Biochem) in reaction buffer (25 mM Hepes, 0.5 mM EDTA, 0.03% SDS) with Suc-LLVY-AMC, Z-LLE-AMC or Boc-LRRAMC used as substrates for proteasome activity. De-ubiquitinase activity assays were performed with human 19S RP (Boston Biochem) with ubiquitin-AMC as substrate. For xenograft studies a 100-μl-cell suspension containing 1×10^6 FaDu head-neck or 2×10^5 Lewis Lung Carcinoma (LLC) cells were injected subcutaneously into the flank of SCID or C57BL/6J mice. Upon tumor take mice were randomized into control or treatment groups and administered with 5 mg kg^−1 b-AP15 or vehicle. In vivo levels of apoptosis and cell death were determined from the detection of caspase cleaved and total levels of cytokeratin-18 in plasma using M30 Apoptosense® and M65 ELISA®s assays (Peviva). […]
In vitro proteasome activity assays using 20S CP (2 nM) (Boston Biochem) were performed at 37° C. in 100-μl reaction buffer (25 mM Hepes, 0.5 mM EDTA, 0.03% SDS). […] Fluorescence was monitored using Wallac Multilabel counter or Tecan Infinite M1000 equipped with 360 nm excitation and 460 nm emission filters. […]
Dose response of b-AP15 (FIG. 11a): Purified 19S proteasomes (5 nM) were treated with indicated concentrations of b-AP15, and DUB activity was determined by detection of Ub-AMC cleavage. […]

26S proteasome = target: T2, 26S proteasome (Homo sapiens, UniProt P54578+Q9Y5K5); assay: DUB inhibition assay, 26S proteasomes with ubiquitin-AMC; assay type: biochemical; details: Ub-AMC
T2 construct: purchased Boston Biochem E-365

[1] = system: non-proteasomal DUBs (UCH-L1, UCH-L3, USP2CD, USP7CD, USP8CD, BAP1); assay: Recombinant non-proteasomal DUBs with ubiquitin-AMC, % activity; assay type: biochemical
Protocol: In vitro proteasome activity assays using 20S CP (2 nM) (Boston Biochem) were performed at 37° C. in 100-μl reaction buffer (25 mM Hepes, 0.5 mM EDTA, 0.03% SDS). Samples were incubated for 10 min with indicated compound followed by addition of 10 μM Suc-LLVY-AMC, Z-LLE-AMC or Boc-LRR-AMC for the detection of chymotrypsin-like, caspase-like and trypsin-like activity respectively. For DUB inhibition assays 19S RP (5 nM), 26S (5 nM) UCH-L1 (5 nM), UCH-L3 (0.3 nM), USP2CD (5 nM) USP7CD (5 nM) USP8CD (5 nM) and BAP1 (5 nM) were incubated with b-AP15 followed by addition of ubiquitin-AMC (1000 nM). Fluorescence was monitored using Wallac Multilabel counter or Tecan Infinite M1000 equipped with 360 nm excitation and 460 nm emission filters. Substrate overlay assays. Native gel electrophoresis was performed as described (41). In brief 4 μg of purified 26S proteasome (Boston Biochem) was mixed with 10 or 50 μM b-AP15 and incubated at 37° C. for 10 min. Samples were resolved on 4% non-denaturing PAGE. Gels were submerged in assay buffer (20 mM Tris-HCL, 5 mM MgCl2, 1 mM ATP, 0.1 mM Suc-LLVY-AMC) and proteasomes were visualized under UV illumination.
HCT-116 cells were treated for 3 h with b-AP15 (1 μM) and the proteasomes were affinity purified (FIG. 12a). […] Recombinant non-proteosomal DUBs were treated with b-AP15 and % activity determined. […]

HCT-116 cells = assay: Immunoblot of DNA damage markers (phosphorylated p53, H2AX); assay type: cell-based
Protocol: The turnover of many cell cycle regulatory proteins is controlled by the UPS including inhibitors of the cyclin-dependent kinases p21 Cip1, p27 Kip1 and the tumor suppressor p53 (4). Treatment with b-AP15 increased their levels in a dose dependent manner.
HCT-116 cells were treated with b-AP15 or doxorubicin (100 nM, as a positive control for genotoxic stress for 18 h) (FIG. 5). Cell lysates were immuno-blotted with antibodies for phosphorylated p53 and histone H2 Ax marker for DNA damage of for total levels of p53 and β-actin as loading controls.

chaperone genes = assay: Microarray expression of chaperone genes after b-AP15 treatment; assay type: cell-based; details: b-AP15 vs vehicle
Protocol: The microarray based gene expression analysis and the Connectivity Map (CMAP) analysis was performed as previously described (40). Briefly, MCF7 cells were exposed to b-AP15 (1 μM, 6 h) or vehicle (0.1% DMSO, 6 h). RNA was isolated (RNeasy miniprep kit, Qiagen) followed by quality control, labelling and hybridization to Genome U133 Plus 2.0 arrays (Affymetrix Inc). Raw data was normalized using Mas5 (Affymetrix Inc.) and rank ordered. For selection of the 30 most induced (up tags) and the 30 most suppressed (down tags) transcripts the following criteria were used: Up tags, present call and expression over 300 arbitrary in the b-AP15 experiment; Down tags, present call after both b-AP15 and vehicle treatment, and expression over 300 arbitrary units in the vehicle experiment. For CMAP compatibility only tags (i.e. probes) present on HG U133A were used. Raw and normalized expression data have been deposited at Gene Expression Omnibus (http://www.ncbi.nlm.nih.gov/geo/) with accession number GSE24150.
Expression of chaperone genes observed in bAP15-treated cells (Table 1) is indicative of induction of a proteotoxic response.

Compound: C=CC(=O)N1C/C(=C\c2ccc([N+](=O)[O-])cc2)C(=O)/C(=C/c2ccc([N+](=O)[O-])cc2)C1 [b-AP15]
- effect of reduced glutathione on inhibition of 19S DUB activity (19S RP; b-AP15 10 μM mixed with GSH 2 mM, 19S 5 nM): did not reduce b-AP15 mediated inhibition
- reversibility of inhibition of 19S DUB activity (19S RP; recovery of activity after 50-fold rapid dilution of enzyme/b-AP15 complex): reversible inhibitor
- inhibition of deubiquitinating activity of 26S proteasome (26S proteasome): inhibits the deubiquitinating activity
- inhibition of recombinant non-proteasomal DUBs [1]: does not inhibit non-proteasomal DUBs
- level of DNA damage markers phosphorylated p53 (Ser 15) and H2AX (Ser 139) (HCT-116 cells): no increase was observed
- Fold change HSPA6 (chaperone genes; probe set 117_at): 725
- Fold change DNAJB1 (chaperone genes; probe set 200666_s_at): 6
- Fold change HSPA1A (chaperone genes; probe set 200800_s_at): 4
- Fold change DNAJA1 (chaperone genes; probe set 200880_at): 4
- Fold change HSPA1B (chaperone genes; probe set 202581_at): 5
- Fold change DNAJB9 (chaperone genes; probe set 202843_at): 4
- Fold change DNAJB4 (chaperone genes; probe set 203810_at): 16
- Fold change DNAJB4 (chaperone genes; probe set 203811_s_at): 5
- Fold change HSPA4L (chaperone genes; probe set 205543_at): 13
- Fold change HSPH1 (chaperone genes; probe set 206976_s_at): 5
- Fold change HSPA4 (chaperone genes; probe set 211016_x_at): 4
- Fold change DNAJA4 (chaperone genes; probe set 225061_at): 30
- Fold change HSPD1 (chaperone genes; probe set 241716_at): 6
